Earlier results, collected in patent US20250170128A1, “Obicetrapib and SGLT2 Inhibitor Combination” (NE[…] B.V. (Dutch Chamber of Commerce No. 5597 1946), priority 2021, published 2025).

Key:
[1] = target: T1, CETP (Homo sapiens, UniProt P11597); settings: repeated daily dosages (once a day) as low as 2.5 mg
T1 construct: CETP is a plasma protein secreted primarily by liver and adipose tissue
T1 sequence (P11597 18-493): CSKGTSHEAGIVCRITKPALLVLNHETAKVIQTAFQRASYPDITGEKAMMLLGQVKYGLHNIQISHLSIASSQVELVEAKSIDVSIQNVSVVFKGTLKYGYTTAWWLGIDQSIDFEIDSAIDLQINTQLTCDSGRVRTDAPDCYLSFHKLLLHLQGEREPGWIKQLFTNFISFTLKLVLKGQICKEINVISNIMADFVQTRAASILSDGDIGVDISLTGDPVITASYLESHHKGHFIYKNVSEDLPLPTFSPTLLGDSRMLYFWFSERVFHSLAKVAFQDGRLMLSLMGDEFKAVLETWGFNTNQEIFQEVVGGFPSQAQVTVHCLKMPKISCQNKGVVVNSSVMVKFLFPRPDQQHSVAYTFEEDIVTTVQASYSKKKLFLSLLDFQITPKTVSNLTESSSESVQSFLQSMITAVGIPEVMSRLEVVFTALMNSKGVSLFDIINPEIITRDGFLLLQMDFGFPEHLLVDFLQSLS

[2] = clinical studies

In the case of CCOC(=O)N1c2ccc(C(F)(F)F)cc2[C@@H](N(Cc2cc(C(F)(F)F)cc(C(F)(F)F)c2)c2ncc(OCCCC(=O)O)cn2)C[C@H]1CC [compound of Formula (I), (2R,4S)-4-{[3,5-bis(trifluoromethyl)benzyl]-[5-(3-carboxypropoxy)pyrimidin-2-yl]amino}-2-ethyl-6-trifluoromethyl-3,4-dihydro-2H-quinoline-1-carboxylic acid ethyl ester], the CETP inhibition [1] is given as “near complete CETP-inhibition”, the serious side effects [2] is given as “does not lead to serious side effects” and the tolerability [2] is given as “well tolerated”.
